Here are results for two compounds from publication PMC6271254, “Antibacterial and EGFR-Tyrosine Kinase Inhibitory Activities of Polyhydroxylated Xanthones from Garcinia succifolia” (Molecules, 2014).

What is called IC50 is the midpoint of a concentration-inhibition curve. The low end stands for higher potency, the high end for lower potency.

This test addresses epidermal growth factor receptor (EGFR) tyrosine kinase (Homo sapiens, UniProt P00533). Put plainly: fluorescence tyrosine kinase assay (Antibody Beacon detection), dose-response. The test is classed as biochemical.

Sequence of epidermal growth factor receptor (EGFR) tyrosine kinase (P00533 25-1210): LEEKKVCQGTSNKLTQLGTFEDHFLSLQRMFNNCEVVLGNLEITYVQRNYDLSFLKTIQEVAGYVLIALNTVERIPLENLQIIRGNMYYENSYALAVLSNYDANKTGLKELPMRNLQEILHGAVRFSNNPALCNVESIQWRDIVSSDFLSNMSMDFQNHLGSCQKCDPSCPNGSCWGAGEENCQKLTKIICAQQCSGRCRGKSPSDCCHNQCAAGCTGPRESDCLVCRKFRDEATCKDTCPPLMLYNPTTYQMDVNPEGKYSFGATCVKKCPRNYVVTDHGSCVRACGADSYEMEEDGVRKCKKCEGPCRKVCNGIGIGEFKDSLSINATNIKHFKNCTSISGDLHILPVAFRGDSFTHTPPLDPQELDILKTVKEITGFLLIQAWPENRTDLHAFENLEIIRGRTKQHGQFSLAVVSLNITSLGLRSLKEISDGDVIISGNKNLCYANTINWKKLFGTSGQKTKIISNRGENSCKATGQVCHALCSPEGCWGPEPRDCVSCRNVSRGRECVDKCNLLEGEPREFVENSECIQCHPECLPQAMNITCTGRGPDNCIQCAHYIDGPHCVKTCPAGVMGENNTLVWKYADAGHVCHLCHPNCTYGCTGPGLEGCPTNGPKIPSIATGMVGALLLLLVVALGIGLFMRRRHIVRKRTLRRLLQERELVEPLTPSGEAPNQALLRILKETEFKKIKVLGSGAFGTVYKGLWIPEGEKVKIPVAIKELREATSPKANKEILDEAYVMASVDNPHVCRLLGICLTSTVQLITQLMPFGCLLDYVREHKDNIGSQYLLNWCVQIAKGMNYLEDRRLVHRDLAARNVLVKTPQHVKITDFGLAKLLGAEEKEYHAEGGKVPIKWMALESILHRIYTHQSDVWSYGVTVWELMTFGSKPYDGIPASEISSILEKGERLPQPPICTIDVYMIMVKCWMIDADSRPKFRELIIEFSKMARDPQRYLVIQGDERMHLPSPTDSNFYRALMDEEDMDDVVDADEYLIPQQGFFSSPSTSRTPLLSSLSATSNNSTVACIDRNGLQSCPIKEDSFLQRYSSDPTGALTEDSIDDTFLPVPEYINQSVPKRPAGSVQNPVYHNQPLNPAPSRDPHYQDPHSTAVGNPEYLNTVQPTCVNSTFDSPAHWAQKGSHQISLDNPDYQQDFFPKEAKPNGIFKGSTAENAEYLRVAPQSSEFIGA

For `O=c1c2cccc(O)c2oc2cccc(O)c12` [compound 1, 1,5-dihydroxyxanthone], the IC50 came out at 90.3 nM.
The figure for `O=c1c2cc(O)ccc2oc2cccc(O)c12` [compound 2, 1,7-dihydroxyxanthone] is 223 nM.
